Source: patent publication US7365096B2, “Methods for selectively inhibiting Janus tyrosine kinase 3 (Jak3)” (Board of Regents, The University of Texas System, priority 2002, dated 2008)
“And” between values parts separate entries of the source, which are not always exact repeats. Identical values can stand only once. “Also recorded” adds a separate entry of the source.

Columns and labels:
[1] = target: Yes (Homo sapiens, UniProt P07947); assay: Kinase substrate phosphorylation (FIG. 9C); assay type: biochemical; conditions: 10 or 50 μM
Method: (§1) Non-Jak3 mediated NfκB activation by TNF-α was not affected within the same treatment set (lower panel). […] Prolactin [PRL] (+) or (−) indicates whether the cells were stimulated with prolactin with Jak2 activation. Phosphotyrosine Western blots detect Jak2-Stat5 activation but no inhibition by 649641P (NC1153). […] 649641P (NC1153) was tested at 10 (open bars) or 50 μM (filled bars) to block growth factor tyrosine kinases (FGFR3 and PDGFRα), Src family tyrosine kinases (Src, Fyn, Lck, Yes, Zap70) or serine threonine kinases (PKC and PKA) phosphorylation of a substrate. The activity of the control is plotted as a dashed line.
(§2) In FIG. 9A, it can be seen that NC1153 inhibits Jak3 driven transcription factor-Stat5a/b in PHA activated T-cells treated with increasing concentrations of NC1153 in a dose dependent manner as measured via EMSA analysis (upper panel). The lane identified as “cold compete” contains unlabeled probe. However, non-Jak3 mediated NfκB activation (lower panel) by TNF-α was not affected within the same treatment set. […] Rat Nb2 cells were treated with increasing concentration of NC1153 and then stimulated with prolactin. Phosphotyrosine Western blots detect activation but no inhibition by NC1153. […] Activity of the control is plotted as a dashed line.

[2] = target: FGFR3 (Homo sapiens, UniProt P22607); assay: Kinase substrate phosphorylation (FIG. 9C); assay type: biochemical; conditions: 10 or 50 μM
Method: as §1, §2

[3] = system: PKA; assay: Kinase substrate phosphorylation (FIG. 9C); assay type: biochemical; conditions: 10 or 50 μM
Method: as §1, §2

[4] = target: Lck (Homo sapiens, UniProt P06239); assay: Kinase substrate phosphorylation (FIG. 9C); assay type: biochemical; conditions: 10 or 50 μM
Method: as §1, §2

[5] = system: PKC; assay: Kinase substrate phosphorylation (FIG. 9C); assay type: biochemical; conditions: 10 or 50 μM
Method: as §1, §2

[6] = target: T1, Zap70 (Homo sapiens, UniProt P43403); assay: Kinase substrate phosphorylation (FIG. 9C); assay type: biochemical; conditions: 10 or 50 μM
T1 sequence (P43403 1-619): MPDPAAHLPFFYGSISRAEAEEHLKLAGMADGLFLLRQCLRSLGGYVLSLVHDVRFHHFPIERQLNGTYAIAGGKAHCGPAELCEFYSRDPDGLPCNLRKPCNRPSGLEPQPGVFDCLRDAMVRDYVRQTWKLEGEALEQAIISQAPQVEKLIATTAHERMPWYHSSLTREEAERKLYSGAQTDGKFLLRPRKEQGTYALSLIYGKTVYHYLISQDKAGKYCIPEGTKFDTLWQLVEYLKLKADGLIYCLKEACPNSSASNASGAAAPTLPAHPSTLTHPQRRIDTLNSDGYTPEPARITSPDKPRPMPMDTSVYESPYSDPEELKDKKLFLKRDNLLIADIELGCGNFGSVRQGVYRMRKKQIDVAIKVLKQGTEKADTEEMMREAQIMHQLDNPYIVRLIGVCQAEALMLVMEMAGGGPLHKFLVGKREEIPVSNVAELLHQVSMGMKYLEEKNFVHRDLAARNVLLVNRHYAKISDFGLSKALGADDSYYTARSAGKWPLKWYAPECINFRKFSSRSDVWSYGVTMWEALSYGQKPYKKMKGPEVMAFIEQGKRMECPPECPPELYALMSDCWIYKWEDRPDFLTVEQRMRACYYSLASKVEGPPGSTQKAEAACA
Method: as §1, §2

[7] = target: Fyn (Homo sapiens, UniProt P06241); assay: Kinase substrate phosphorylation (FIG. 9C); assay type: biochemical; conditions: 10 or 50 μM
Method: as §1, §2

[8] = target: Src (Homo sapiens, UniProt P12931); assay: Kinase substrate phosphorylation (FIG. 9C); assay type: biochemical; conditions: 10 or 50 μM
Method: as §1, §2

[9] = target: PDGFRα (Homo sapiens, UniProt P16234); assay: Kinase substrate phosphorylation (FIG. 9C); assay type: biochemical; conditions: 10 or 50 μM
Method: as §1, §2

[10] = system: IL2R-α, -β, and -γ chains; assay: FACS analysis of IL2 receptor expression on PHA-activated T-cell blasts; assay type: cell-based, human; conditions: 50 μM overnight
Method: FIG. 7A is a bar graph showing that proliferation of PHA-activated human T cells was blocked by the indicated NCI agents following stimulation with IL-2. FIG. 7B is a FACS analysis of PHA-activated T-cell blasts that were treated without (heavy line) or with 50 μM NC1153 (light line) overnight and stained for IL2R-α, -β, and -γchains. FIG. 7C is a graph of cell growth inhibition over a range of NC1153 concentration in non-Jak3 expressing Jurkat cells (black diamonds) and in Jak3 containing PHA activated T-cells (open boxes). FIG. 7D is a graph of cell growth inhibition versus NC1153 concentration in T-cells stimulated by cytokines that utilize Jak3 and the common gamma chain.
Also shown (FIG. 7B) is a graph showing the FACS analysis of PHA-activated T-cell blasts that were treated without (heavy line) or with 50 μM NC1153 (light line) overnight and stained for IL2R-α, -β, and -γ chains. The dashed lines indicate cells pretreated with NC1153. […] Data are normalized as percent of vehicle control. NC1153 inhibits growth of cells by cytokines that utilize Jak3 and the common gamma chain (FIG. 7D). […] Thus, the inhibitory effects of NC1153 are not limited to cells stimulated only by IL-2. Instead, the entire family of cytokines which use Jak3 are blocked by NC1153.

[11] = system: LEW kidney allografts; assay: Rat kidney allograft survival (LEW donors to ACI recipients); assay type: in vivo
Description: Rat Kidney Transplants. Adult male ACI (RT1^a) and Lewis (LEW; RT1^1) rats (160-200 g) obtained from Harlan Sprague-Dawley (Indianapolis, Ind.) were cared for according to the guidelines of the Animal Welfare Committee. Rats were housed in light- and temperature-controlled quarters and given chow and water ad libitum. Kidneys were transplanted heterotopically from LEW donors to ACI recipients using a standard microsurgical technique of Ono and Lindsey^28. […] A control group of recipients remained untreated. […] Graft survival time was defined as animal survival of life supporting kidney transplant.
To test the in vivo effects, recipients of kidney allografts were treated with 649641P (NC1153) for 7 days beginning immediately after transplantation. […] A mean survival time (MST) and SD was calculated for each group from 5-6 experiments.
A MST and SD were calculated for each group from 5-6 experiments. The combination index (CI) values were calculated.

Sequence of Fyn (P06241 whole entry, species assumed): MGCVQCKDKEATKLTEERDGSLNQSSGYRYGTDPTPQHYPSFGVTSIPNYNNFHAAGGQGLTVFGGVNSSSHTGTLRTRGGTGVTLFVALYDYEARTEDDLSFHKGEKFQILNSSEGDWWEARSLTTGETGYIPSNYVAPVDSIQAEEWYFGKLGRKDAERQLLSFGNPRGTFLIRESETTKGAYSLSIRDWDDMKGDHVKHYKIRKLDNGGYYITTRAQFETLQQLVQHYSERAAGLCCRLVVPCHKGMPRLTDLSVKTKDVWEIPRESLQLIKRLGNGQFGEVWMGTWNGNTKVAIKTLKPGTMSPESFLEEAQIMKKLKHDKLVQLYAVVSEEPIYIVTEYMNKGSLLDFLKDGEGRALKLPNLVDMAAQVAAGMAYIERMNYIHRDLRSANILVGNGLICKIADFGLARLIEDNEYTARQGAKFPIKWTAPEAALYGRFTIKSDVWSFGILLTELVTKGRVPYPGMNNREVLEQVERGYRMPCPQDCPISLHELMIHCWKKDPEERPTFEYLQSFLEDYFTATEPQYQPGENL
Sequence of Lck (P06239 whole entry, species assumed): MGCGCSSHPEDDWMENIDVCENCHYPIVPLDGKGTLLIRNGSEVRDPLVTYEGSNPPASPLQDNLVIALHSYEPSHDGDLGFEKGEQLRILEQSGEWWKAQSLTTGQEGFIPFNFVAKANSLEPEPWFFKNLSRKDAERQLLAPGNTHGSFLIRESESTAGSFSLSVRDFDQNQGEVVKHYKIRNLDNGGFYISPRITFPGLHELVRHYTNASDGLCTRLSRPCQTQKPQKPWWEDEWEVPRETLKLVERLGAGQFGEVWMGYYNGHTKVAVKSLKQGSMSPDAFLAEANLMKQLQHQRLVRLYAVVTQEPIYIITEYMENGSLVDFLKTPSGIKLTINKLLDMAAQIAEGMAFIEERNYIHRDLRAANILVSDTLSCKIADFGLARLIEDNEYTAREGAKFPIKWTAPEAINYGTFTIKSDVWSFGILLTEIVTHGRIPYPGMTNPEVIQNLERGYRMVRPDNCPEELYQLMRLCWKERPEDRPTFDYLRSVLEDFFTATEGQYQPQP
Sequence of Src (P12931 whole entry, species assumed): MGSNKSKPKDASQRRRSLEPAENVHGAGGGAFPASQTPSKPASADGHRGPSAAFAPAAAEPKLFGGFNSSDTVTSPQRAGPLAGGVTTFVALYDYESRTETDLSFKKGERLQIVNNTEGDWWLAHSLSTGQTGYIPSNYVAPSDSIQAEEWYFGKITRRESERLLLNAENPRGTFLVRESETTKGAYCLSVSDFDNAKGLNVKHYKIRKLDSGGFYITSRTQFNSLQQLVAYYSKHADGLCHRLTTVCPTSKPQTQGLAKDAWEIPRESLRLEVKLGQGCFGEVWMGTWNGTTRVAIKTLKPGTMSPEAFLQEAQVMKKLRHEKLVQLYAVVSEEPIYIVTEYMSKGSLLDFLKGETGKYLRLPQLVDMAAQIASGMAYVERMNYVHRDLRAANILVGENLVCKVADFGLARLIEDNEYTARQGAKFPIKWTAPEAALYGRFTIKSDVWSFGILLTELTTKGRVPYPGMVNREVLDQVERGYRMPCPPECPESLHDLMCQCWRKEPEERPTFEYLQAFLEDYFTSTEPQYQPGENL
Sequence of Yes (P07947 whole entry, species assumed): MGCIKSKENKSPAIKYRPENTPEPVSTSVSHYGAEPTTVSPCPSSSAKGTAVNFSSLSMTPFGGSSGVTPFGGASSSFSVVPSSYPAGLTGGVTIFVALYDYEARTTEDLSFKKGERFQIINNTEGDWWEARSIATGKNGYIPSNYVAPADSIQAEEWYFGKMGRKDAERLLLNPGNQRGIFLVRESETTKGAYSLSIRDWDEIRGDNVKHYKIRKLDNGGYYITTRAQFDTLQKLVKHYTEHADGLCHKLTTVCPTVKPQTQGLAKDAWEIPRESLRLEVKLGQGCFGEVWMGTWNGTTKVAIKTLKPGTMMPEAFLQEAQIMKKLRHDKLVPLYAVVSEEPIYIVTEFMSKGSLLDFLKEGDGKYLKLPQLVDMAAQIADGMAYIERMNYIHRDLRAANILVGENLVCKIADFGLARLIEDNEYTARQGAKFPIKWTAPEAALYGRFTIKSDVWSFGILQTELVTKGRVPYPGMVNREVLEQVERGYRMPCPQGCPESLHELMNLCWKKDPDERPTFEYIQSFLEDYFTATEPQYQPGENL
Sequence of FGFR3 (P22607 23-806, species assumed): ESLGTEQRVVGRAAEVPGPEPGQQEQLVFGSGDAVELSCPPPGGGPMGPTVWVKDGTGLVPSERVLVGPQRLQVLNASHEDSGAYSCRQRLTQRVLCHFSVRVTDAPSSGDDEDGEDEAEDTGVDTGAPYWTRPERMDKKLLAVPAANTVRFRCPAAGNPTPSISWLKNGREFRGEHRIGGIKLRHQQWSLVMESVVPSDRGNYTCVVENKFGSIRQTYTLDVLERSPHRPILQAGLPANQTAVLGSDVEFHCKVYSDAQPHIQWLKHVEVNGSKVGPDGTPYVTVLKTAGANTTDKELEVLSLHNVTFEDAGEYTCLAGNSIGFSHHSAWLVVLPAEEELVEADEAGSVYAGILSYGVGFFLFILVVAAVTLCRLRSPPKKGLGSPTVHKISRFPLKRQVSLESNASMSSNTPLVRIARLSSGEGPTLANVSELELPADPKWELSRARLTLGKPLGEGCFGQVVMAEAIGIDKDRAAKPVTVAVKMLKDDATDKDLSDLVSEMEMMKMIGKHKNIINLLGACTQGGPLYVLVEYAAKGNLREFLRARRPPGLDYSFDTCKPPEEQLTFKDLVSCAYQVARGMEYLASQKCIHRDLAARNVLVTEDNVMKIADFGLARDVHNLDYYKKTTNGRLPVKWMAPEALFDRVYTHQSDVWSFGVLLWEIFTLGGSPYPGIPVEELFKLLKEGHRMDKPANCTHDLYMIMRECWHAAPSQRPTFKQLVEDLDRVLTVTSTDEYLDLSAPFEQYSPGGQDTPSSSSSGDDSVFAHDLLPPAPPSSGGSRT
Sequence of PDGFRα (P16234 24-1089, species assumed): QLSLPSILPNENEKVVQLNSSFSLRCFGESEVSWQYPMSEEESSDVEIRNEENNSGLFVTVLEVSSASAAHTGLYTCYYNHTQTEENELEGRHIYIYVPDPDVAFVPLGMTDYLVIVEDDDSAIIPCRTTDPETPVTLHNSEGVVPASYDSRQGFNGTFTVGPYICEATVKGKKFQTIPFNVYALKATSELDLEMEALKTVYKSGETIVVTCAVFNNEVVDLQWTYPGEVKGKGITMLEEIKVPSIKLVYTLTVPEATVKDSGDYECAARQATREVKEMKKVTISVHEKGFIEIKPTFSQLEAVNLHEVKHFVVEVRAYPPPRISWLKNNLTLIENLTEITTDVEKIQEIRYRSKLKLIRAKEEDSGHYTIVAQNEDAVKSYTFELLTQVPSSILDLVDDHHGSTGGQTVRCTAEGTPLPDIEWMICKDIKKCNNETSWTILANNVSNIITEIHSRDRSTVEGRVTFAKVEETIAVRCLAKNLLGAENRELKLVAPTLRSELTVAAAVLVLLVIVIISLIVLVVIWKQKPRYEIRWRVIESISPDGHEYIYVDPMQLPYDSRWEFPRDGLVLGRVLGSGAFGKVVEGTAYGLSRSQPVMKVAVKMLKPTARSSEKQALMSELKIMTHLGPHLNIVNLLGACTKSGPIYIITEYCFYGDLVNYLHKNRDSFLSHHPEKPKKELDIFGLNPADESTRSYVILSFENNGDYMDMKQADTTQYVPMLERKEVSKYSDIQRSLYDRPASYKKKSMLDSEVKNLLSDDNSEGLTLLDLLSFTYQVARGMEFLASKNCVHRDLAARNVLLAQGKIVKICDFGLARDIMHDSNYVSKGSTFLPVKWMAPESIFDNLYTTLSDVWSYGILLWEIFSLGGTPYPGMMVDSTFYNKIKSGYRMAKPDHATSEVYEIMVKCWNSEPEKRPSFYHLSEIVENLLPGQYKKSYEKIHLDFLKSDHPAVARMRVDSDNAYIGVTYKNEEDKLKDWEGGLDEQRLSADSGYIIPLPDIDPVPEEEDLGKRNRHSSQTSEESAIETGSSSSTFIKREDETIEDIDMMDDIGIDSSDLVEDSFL

SMILES: CN(C)CC1CCCCCCCCCC(CN(C)C)C1=O (mixture of isomers) [649641P (NC1153)]
- Yes phosphorylation of a substrate [1]: fails to affect the activity
- Yes phosphorylation of a substrate ([1]; listed as NC1153): fails to affect activity
- FGFR3 phosphorylation of a substrate [2]: fails to affect the activity
- FGFR3 phosphorylation of a substrate ([2]; listed as NC1153): fails to affect activity
- PKA phosphorylation of a substrate [3]: fails to affect the activity
- PKA phosphorylation of a substrate ([3]; listed as NC1153): fails to affect activity
- Lck phosphorylation of a substrate [4]: fails to affect the activity
- Lck phosphorylation of a substrate ([4]; listed as NC1153): fails to affect activity
- PKC phosphorylation of a substrate [5]: fails to affect the activity
- PKC phosphorylation of a substrate ([5]; listed as NC1153): fails to affect activity
- Zap70 phosphorylation of a substrate [6]: fails to affect the activity
- Zap70 phosphorylation of a substrate ([6]; listed as NC1153): fails to affect activity
- Fyn phosphorylation of a substrate [7]: fails to affect the activity
- Fyn phosphorylation of a substrate ([7]; listed as NC1153): fails to affect activity
- Src phosphorylation of a substrate [8]: fails to affect the activity
- Src phosphorylation of a substrate ([8]; listed as NC1153): fails to affect activity
- PDGFRα phosphorylation of a substrate [9]: fails to affect the activity
- PDGFRα phosphorylation of a substrate ([9]; listed as NC1153): fails to affect activity
- IL2 receptor expression [10]: failed to affect IL2 receptor expression; also recorded: unaffected
- MST ± SD ([11]; 649641P (NC1153) 2.5 mg/kg/d i.v. × 7 days alone): 9.5 ± 1.4 days and 9.5 ± 1.5 days
- MST ± SD ([11]; 649641P (NC1153) 5.0 mg/kg/d i.v. × 7 days alone): 12.2 ± 1.5 days
- MST ± SD ([11]; 649641P (NC1153) 10.0 mg/kg/d i.v. × 7 days alone): 18.8 ± 1.1 days
- MST ± SD ([11]; 649641P (NC1153) 20.0 mg/kg/d i.v. × 7 days alone): 24.8 ± 6.6 days and 24.8 ± 4.6 days
- MST ± SD ([11]; 649641P (NC1153) 40.0 mg/kg/d p.o. × 7 days alone): 12.3 ± 1.26 days
- MST ± SD ([11]; 649641P (NC1153) 80.0 mg/kg/d p.o. × 7 days alone): 18.6 ± 5.32 days
- MST ± SD ([11]; 649641P (NC1153) 160.0 mg/kg/d p.o. × 7 days alone): 31.0 ± 3.9 days
- MST ([11]; 649641P (NC1153) 240 mg/kg/day p.o. for 7 days): 47.8 ± 19.59 days
- rat kidney allograft survival ([11]; given alone, i.v. or oral gavage, 7 days): prolonged rat kidney allograft survival in a dose-dependent fashion
